Laboratory results published in PMC7238120, “Strong and Selective Inhibitory Effects of the Biflavonoid Selamariscina A against CYP2C8 and CYP2C9 Enzyme Activities in Human Liver Microsomes” (Pharmaceutics, 2020).
Where two headings read alike, the source gives them in different places.

Key:
[1] = target: T1, UGT2B7 (Homo sapiens, UniProt P16662); assay: Inhibition of UGT2B7 (naloxone glucuronidation) in human liver microsomes; assay type: in vitro ADME; settings: substrate naloxone; HLMs
T1 construct: tissue XenoTech XTreme 200; host or cells: pooled human liver microsomes
T1 sequence (P16662 24-529): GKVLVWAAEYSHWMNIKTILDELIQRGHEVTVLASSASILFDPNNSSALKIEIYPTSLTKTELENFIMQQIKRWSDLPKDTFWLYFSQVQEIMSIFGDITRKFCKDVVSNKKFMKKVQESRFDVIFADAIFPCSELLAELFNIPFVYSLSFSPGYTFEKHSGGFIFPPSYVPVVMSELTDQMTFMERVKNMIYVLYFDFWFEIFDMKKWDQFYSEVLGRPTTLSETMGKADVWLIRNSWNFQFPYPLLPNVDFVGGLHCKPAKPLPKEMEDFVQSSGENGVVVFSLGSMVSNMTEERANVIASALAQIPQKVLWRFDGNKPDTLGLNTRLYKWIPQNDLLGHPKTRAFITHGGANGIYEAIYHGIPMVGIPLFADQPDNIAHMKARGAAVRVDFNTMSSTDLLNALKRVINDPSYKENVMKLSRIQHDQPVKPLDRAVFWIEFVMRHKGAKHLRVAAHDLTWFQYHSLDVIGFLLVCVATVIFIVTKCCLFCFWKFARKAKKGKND
Protocol: The ability of selamariscina A to inhibit the metabolism of six UGT enzyme probe substrates was evaluated using previously developed methods with minor modifications. The microsomal incubation was performed by dividing the non-interactive substrate cocktail sets (set A included SN-38 for UGT1A1, CDCA for UGT1A3 and TFP for UGT1A4 while set B included N-SER for UGT1A6, MPA for UGT1A9 and NX for UGT2B7) (Table 2). In brief, HLMs (0.25 mg/mL) were activated by incubation in the presence of alamethicin (25 µg/mL) for 15 min on ice. After the addition of UGT probe substrates and inhibitor (0, 0.5, 2, 5, 20 and 50 μM), the incubation mixtures were pre-incubated at 37 °C for 5 min. […] After centrifugation at 18,000 g (5 min, 4 °C), aliquots of supernatants were analyzed by LC–MS/MS. […]
All metabolites and the IS were separated on a Kinetex XB-C18 column (100 × 2.10 mm, 2.6 μm, 100 Å; Phenomenex, Torrance, CA, USA) and analyzed using a Shimadzu LCMS 8060 triple-quadrupole mass spectrometer coupled with a Nexera X2 ultra high-performance liquid chromatography system (Shimadzu, Kyoto, Japan) equipped with an electrospray ionization interface. […] Quantitation was conducted in selected reaction monitoring (SRM) modes with the precursor-to-product ion transition for each metabolite (Table 1 and Table 2).
We analyzed the data with Shimadzu LabSolution LC–MS software. […]

[2] = target: T2, CYP2C8 (Homo sapiens, UniProt P10632); assay: Time-dependent inhibition (IC50 shift) of CYP2C8, amodiaquine, human liver microsomes; assay type: in vitro ADME; design: incubation mixtures containing pooled human liver microsomes (HLMs, XTreme 200, XenoTech); tissue XenoTech XTreme 200; host or cells: pooled human liver microsomes
T2 sequence (P10632 1-490): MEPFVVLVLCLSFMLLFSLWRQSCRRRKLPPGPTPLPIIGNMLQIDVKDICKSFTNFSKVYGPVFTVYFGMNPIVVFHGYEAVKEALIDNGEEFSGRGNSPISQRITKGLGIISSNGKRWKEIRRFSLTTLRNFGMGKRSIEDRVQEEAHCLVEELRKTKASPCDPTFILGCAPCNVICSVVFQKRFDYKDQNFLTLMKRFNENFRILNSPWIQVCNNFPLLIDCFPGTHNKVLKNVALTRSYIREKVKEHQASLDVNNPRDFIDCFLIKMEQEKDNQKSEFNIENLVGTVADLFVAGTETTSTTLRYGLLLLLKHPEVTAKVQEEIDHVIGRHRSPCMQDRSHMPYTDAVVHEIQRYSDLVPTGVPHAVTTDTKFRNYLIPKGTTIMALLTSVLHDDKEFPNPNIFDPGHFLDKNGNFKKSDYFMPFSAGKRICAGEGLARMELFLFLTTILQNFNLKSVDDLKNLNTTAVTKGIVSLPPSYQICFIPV
Protocol: The time-dependent inhibition of selamariscina A against CYP2C8 and CYP2C9 enzymes was evaluated using an IC50 shift method. Selamariscina A was pre-incubated at six concentrations (0, 0.002, 0.005, 0.02, 0.05, and 0.2 μM) with HLMs in the presence of an NDAPH generation system for 30 min at 37 °C. The reaction was initiated by adding 1 μM amodiaquine or 10 μM diclofenac and further incubated for 10 min. Incubation was terminated by adding 50 μL of ice-cold acetonitrile containing 7 nM trimipramine. After centrifugation, aliquots of supernatants were analyzed by LC–MS/MS.
All metabolites and the IS were separated on a Kinetex XB-C18 column (100 × 2.10 mm, 2.6 μm, 100 Å; Phenomenex, Torrance, CA, USA) and analyzed using a Shimadzu LCMS 8060 triple-quadrupole mass spectrometer coupled with a Nexera X2 ultra high-performance liquid chromatography system (Shimadzu, Kyoto, Japan) equipped with an electrospray ionization interface. The mobile phase consisted of 0.1% formic acid in water (A) and 0.1% formic acid in acetonitrile (B). The elution condition was set as 8% B (0–0.5 min), 8%→60% B (0.5–5 min), 60% B (5–6 min), 60%→8% B (6–6.1 min) and 8% B (6.1–9 min) for the analysis of metabolites of P450 probe substrates and set as 0%→40% B (0–1 min), 40%→50% B (1–5 min), 50%→0% B (5–5.1 min), and 0% B (5.1–8 min) for the analysis of metabolites of UGT probe substrates. The flow rate was 0.2 mL/min. Electrospray ionization was performed in positive-ion mode at 4000 V or in negative-ion mode at −3500 V. The optimum operating conditions were determined as follows: vaporizer temperature, 300 °C; capillary temperature, 350 °C; collision gas (argon) pressure, 1.5 mTorr. Quantitation was conducted in selected reaction monitoring (SRM) modes with the precursor-to-product ion transition for each metabolite (Table 1 and Table 2).
We analyzed the data with Shimadzu LabSolution LC–MS software. The IC50 values were calculated by WinNonlin software (Pharsight, Mountain View, CA, USA). […]

[3] = target: CYP2C9 (Homo sapiens, UniProt P11712); settings: compared with diclofenac hydroxylase inhibition; S-mephenytoin 25 µM printed as substrate; read-out: IC50 reported by von Moltke et al. (2004); cited from earlier work
CYP2C9, sequence (P11712 whole entry): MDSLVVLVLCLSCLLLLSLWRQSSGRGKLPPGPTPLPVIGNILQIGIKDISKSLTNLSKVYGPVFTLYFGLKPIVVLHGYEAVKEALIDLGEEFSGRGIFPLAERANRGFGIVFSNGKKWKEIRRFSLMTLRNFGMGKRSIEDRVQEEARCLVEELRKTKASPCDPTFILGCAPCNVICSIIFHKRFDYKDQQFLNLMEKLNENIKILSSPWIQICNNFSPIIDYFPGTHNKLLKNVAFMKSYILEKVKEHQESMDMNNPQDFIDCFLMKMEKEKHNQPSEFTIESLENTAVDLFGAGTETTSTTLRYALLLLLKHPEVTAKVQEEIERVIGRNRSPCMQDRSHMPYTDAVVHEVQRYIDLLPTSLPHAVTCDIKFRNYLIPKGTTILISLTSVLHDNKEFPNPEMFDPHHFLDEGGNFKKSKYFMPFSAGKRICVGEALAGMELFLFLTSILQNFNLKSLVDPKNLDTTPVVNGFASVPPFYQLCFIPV

| IC50 [1] [nM] | IC50 ([2]; 30 min pre-incubation at 37 °C with NADPH generation system, read-out: IC50, CYP2C8 amodiaquine, HLMs pre-incubated with NADPH generation system) [nM] | Time-dependent inhibition of CYP2C8 ([2]; IC50 shift method) | IC50 ([2]; no NADPH pre-incubation, read-out: IC50, CYP2C8 amodiaquine, untreated HLMs) [nM] | SMILES | IC50 [3] [nM] |
| --- | --- | --- | --- | --- | --- |
| > 50000 | 31 | not a time-dependent inhibitor | 19 | O=C1CC(c2cc(-c3c(O)ccc4c(=O)cc(-c5ccc(O)cc5)oc34)c(O)cc2O)Oc2cc(O)cc(O)c21 (centres unmarked) [selamariscina A] |  |
|  |  |  |  | O=c1cc(-c2ccc(O)c(-c3c(O)cc(O)c4c(=O)cc(-c5ccc(O)cc5)oc34)c2)oc2cc(O)cc(O)c12 [amentoflavone] | 35 |
